This is an account of results in patent US8765729B2, “Cancer therapy” (Aeolus Sciences, Inc., priority 2001, dated 2014).

A short description of series [1]: SOD activity (cytochrome C method). Format: biochemical. The source says:
FIGS. 1A-1H show the structures of certain generic and specific definitions of compounds suitable for use in the present invention. With reference to FIG. 1C, mimetics of the invention can be of Formula I or Formula II, or dimeric forms thereof, an example of a dimeric form being shown in FIG. 1D. With reference to FIG. 1H, the SOD activities of certain of the depicted compounds are shown in Table 1 (as measured by the cytochrome C method): […]

Series [2] has as its system R3230 mammary adenocarcinoma cells in Z-chambers. Nature of the series: Tumor development in Z-chambers. The conditions noted are these: 6 mg/kg i.p. 24 hours before implantation of 2.5 mil./ml cells. Format: in vivo, Fisher-344 rats. Here is the method:
FIG. 4. Animals were pretreated with different SOD mimetics (6 mg/kg i.p.) 24 hours before implantation of 2.5 mil./ml R3230 mammary adenocarcinoma cells in Z-chambers.
These chambers are constructed from customized plexi-glass rings with internal diameter of 10 mm and have a pore on the side. The two open surfaces are covered by nylon mesh (pore size 180 microns, Millipore, Mass.) and glued to the rings. Fibrinogen (Human fibrinogen, plasminogen depleted, CalBiochem) is prepared in DMEM, Gibco BRL) and a concentration of 4-5 mg/ml is utilized for the studies. Although the Fischer rats used in the study are immune competent, this purified batch of fibrinogen has been recognized to be very well conserved across species lines. It has already been shown that early angiogenic response to human fibrinogen is very similar to rat fibrinogen in fibrin gel chambers. The two different types of fibrinogen have also been tested in the Z-Chambers and no difference was found in angiogenic and healing response. Human fibrinogen was used.
The Fibrin Z-Chambers have fibrinogen solution poured inside the chamber through the pore and followed by 2 units of thrombin. […]
The Z-Chambers were harvested on day 1 or 12 post surgery. […] The depth of either the tumor tissue (tumor growth) or granulation tissue (wound healing) was measured with calipers on the 4×6 inch print. […]

Series [3] relates to oral mucositis induced by acute radiation. The experiment in a line: Oral mucositis induced by acute radiation in hamsters. Format: in vivo. Here is the method:
Forty hamsters were given an acute radiation dose directed to their oral mucosa. Test materials will be applied by injection, or topically (three times per day) beginning the day before radiation and continuing until day 20. Mucositis were evaluated on alternate days beginning on day 6 (day of radiation=day 0) and continuing until the conclusion of the experiment on day 28.
Forty (40) hamsters were used. The hamsters were randomized into five (5) groups of eight (8) animals each. Each group was assigned a different treatment of 0.2 ml tid as follows:
Parameters measured included the mucositis score, weight change and survival. For the evaluation of mucositis, the animals were anesthetized with inhalation anesthetics ([…] or Halothane), and the left pouch everted. Mucositis was scored both clinically during the laboratory portion of the study and in a blinded manner (at the conclusion of the study). Clinical scoring was performed by visual comparison to a validated photographic scale, ranging from 0 for normal, to 5 for severe ulceration.
• 0 Pouch completely healthy. No erythema or vasodilation • 1 Light to […] erythema and vasodilation. No erosion of mucosa • 2 Severe erythema and vasodilation. Erosion of superficial aspects of mucosa leaving denuded areas. Decreased stippling of mucosa. • 3 Formation of off-white ulcers in one or more places. Ulcers may have a yellow/gray due to pseudomembrane. Cumulative size of ulcers should equal about ¼ of the pouch. Severe erythema and vasodilation. • 4 Cumulative seize of ulcers should equal about ½ of the pouch. Loss of pliability. Severe erythema and vasodilation. • 5 Virtually all of pouch is ulcerated. Loss of pliability (pouch can only partially be extracted from mouth) A score of 1-2 is considered to represent a mild stage of the disease, whereas a score 3-5 is considered to indicate moderate to severe mucositis. Results
Chi-square analysis of the total number of days the animals in each group spent with a score of three or more. This statistic is a measure of severity of ulceration, a clinically important outcome. Significant efficacy is indicated in red.

Where [4] appears, read: high dose IP (1 mg/ml tid), total days 192.
The mark [5] stands for this setting: high dose topical (1 mg/ml tid), total days 192.
[6] abbreviates: low dose IP (0.25 mg/ml tid), total days 192.
Where [7] appears, read: low dose topical (0.25 mg/ml tid), total days 182.

Consider `CCn1cc[n+](CC)c1-c1c2nc(c(-c3n(CC)cc[n+]3CC)c3ccc([nH]3)c(-c3n(CC)cc[n+]3CC)c3nc(c(-c4n(CC)cc[n+]4CC)c4ccc1[nH]4)C=C3)C=C2.[Mn+3]` [Compound 10150, manganese(III)tetrakis(N-diethylimidazolium-2,5-yl)porphyrin], for which the SOD activity in series [1] is on record as 14,789 U/mg. For the same molecule, the tumor development entry in series [2] was “Significant (p<0.01) inhibition of tumor development”. Besides, the “Percent Days > 3” value in series [3] (INC-01, 0.25 mg/ml IP, control 45.8, P 0.001) was 18.8%; in series [3] (INC-01, 0.25 mg/ml Topical, control 45.8, P 0.953), 45.6%; in series [3] (INC-01, 1 mg/ml IP, control 45.8, P 0.005), 31.3%; in series [3] (INC-01, 1 mg/ml Topical, control 45.8, P 0.148) it was 38%; in series [3] (INC-02, 0.25 mg/ml IP, control 43.3, P 0.004) it was 28.6%; in series [3] (INC-02, 1.5 mg/ml IP, control 43.3, P 0.002), 27.6%. The “Percent Days > 3” value in series [3] (INC-02, 1.5 mg/ml Topical, control 43.3, P 0.298) came to 37.5%; in series [3] (INC-02, 5 mg/ml Topical, control 43.3, P 0.002), 27.6%; in series [3] (INC-03, 1 mg/ml IP, control 33.3, P 0.113) it was 38.1%; in series [3] (INC-04, 0.25 mg/ml IP, control 43.9, P 0.485), 47.3%; in series [3] (INC-05, 0.25 mg/ml IP, control 68.8, P 0.001), 42.1%; in series [3] (INC-05, 1.5 mg/ml IP, control 68.8, P 0.001), 33.3%. The “reduction in the percent of days with Mucositis Scores ≧3” value in series [3] (IP, 0.2 ml of 0.25 mg/ml TID, 1.5 mg/kg/day) was 59%. The “Days < 3” value in series [3] (setting [4]) is listed as 132; in series [3] (setting [5]), 119; in series [3] (setting [6]) it was 156; in series [3] (setting [7]), 99. In addition, the “Days >= 3” value is 60 in series [3] (setting [4]), 73 in series [3] (setting [5]), 36 in series [3] (setting [6]) and 83 in series [3] (setting [7]). Also, the “% Days >= 3” value in series [3] (high dose IP, control 45.8, P 0.005) came to 31.3%; in series [3] (high dose topical, control 45.8, P 0.148), 38.0%; in series [3] (low dose IP, control 45.8, P <0.001), 18.8%; in series [3] (low dose topical, control 45.8, P 0.953), 45.6%. The mucositis severity entry in series [3] (high dose topical, not statistically significant) is “tended to reduce mucositis severity”. Further, the “severity of mucositis associated with radiation therapy” value in series [3] (most evident with IP administration) is “markedly reduces the severity of mucositis”. Further, the “incidence of severe mucositis” value in series [3] (topical dosing, both concentrations) is “not in either group treated by topical dosing”.

For “CuZn-SOD: dimeric copper- and zinc-containing enzyme found in the cytosol of all cells”, the SOD activity in series [1] is 2,200 U/mg.
